The values that follow come from US8912123B2, “Safened herbicidal compositions including 4-amino-3-chloro-5-fluoro-6-(4-chloro-2-fluoro-3-methoxyphenyl)pyridine-2-carboxylic acid or a derivative thereof and methods for their use” (Dow AgroSciences, LLC., priority 2012, dated 2014).

The data set deals with winter barley (Hordeum vulgare, HORVW). Briefly: Post-emergence field trial, visual crop injury (ear deformation) in winter barley. In kind it is in vivo. Conditions: for Observed Visual Injury - Ear Deformation (%) 227 DAA HORVW: no safener, 1 L/ha Agnique BL3095, post-emergence field, scale 0-100. As for the experimental part:
A post-emergence field trial was conducted under field conditions in Helbigsdorf, Germany. Trial site was located in commercially grown fields of winter barley (Hordeum vulgare, HORVW) using standard herbicide small plot research methodology. Postemergence trial plot was 2.5 meter (m)×5 m (width×length) with 3 replicates per treatment. The crop was grown using normal cultural practices for fertilization, seeding, and maintenance to ensure good growth of the crop and the weeds. Trial treatments included spray formulations containing 4-amino-3-chloro-5-fluoro-6-(4-chloro-2-fluoro-3-methoxy-phenyl)pyridine-2-carboxylic acid (Compound A) at various rates and optionally including cloquintocet mexyl. All treatments in the post-emergence field trials were applied using a bicycle sprayer compressed air/gas sprayer with flat fan nozzles (90°) calibrated to apply 200 L/ha spray volume at approximately 250 kPa nozzle pressure. The spray formulations for Trials 1-4 listed in Table 1 included Dow AgroSciences testing formulation Compound A (listed in acid equivalent per hectare (g ae/ha)), Agnique BL3095 (Cognis, France; listed as liters of product per hectare (L pr/ha)), and optionally cloquintocet mexyl (listed as grams of active ingredient per hectare (g ai/ha)). The spray solutions were mixed in water at the levels indicated in Table 1 to achieve the desired rates based on a unit area of application (hectare). Data for observed visual injury is provided for 227 days after application (DAA) in Table 1. Visual crop injury (ear deformation) was scored on a scale of 0 to 100 percent where 0 corresponds to no injury and 100 correspond to damage at all plants. All treatment results, both for the single product and mixture, are with 4 replicates. The trial sites had naturally occurring populations of weeds. The weed spectrum included loose silky-bent ([…]).

Consider `COc1c(Cl)ccc(-c2nc(C(=O)O)c(Cl)c(N)c2F)c1F` [Compound A, 4-amino-3-chloro-5-fluoro-6-(4-chloro-2-fluoro-3-methoxy-phenyl)pyridine-2-carboxylic acid], for which the “Observed Visual Injury - Ear Deformation (%) 227 DAA HORVW” value (Compound A 10 g ae/ha) was 27%, the “Observed Visual Injury - Ear Deformation (%) 227 DAA HORVW” value (Compound A 20 g ae/ha) is listed as 30% and the “Observed Visual Injury - Ear Deformation (%) 227 DAA HORVW” value (Compound A 30 g ae/ha) is 30%.

Consider `CCCCCC(C)OC(=O)COc1ccc(Cl)c2cccnc12` (stereo not shown) [cloquintocet-mexyl, reference compound], for which the “Safening of the compound of formula I in winter barley” value (conclusion from Table 1, winter barley) is “safened”.
